The text below walks through data of ChEMBL document CHEMBL1201862, “PubChem BioAssay data set” (2004).

Some test systems named below: NCI-H522; A549; SK-MEL-2; U-251; UACC-62; TK-10; SNB-75; HOP-62; UACC-257; Malme-3M; SK-OV-3; M14; A498; MDA-MB-435; MDA-N; BT-549; PC-3; Hs-578T; NCI/ADR-RES.
Holding throughout (test): DTP human tumour cell line panel, 48 h

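1) Cells in 96-well plates. 2) Compound, 48 h, 5 concentrations. 3) Linear interpolation between surrounding doses. 4) Unreached endpoint = highest concentration. At the GI50, growth is halved.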 Active and inactive are the calls of the source. Rule as the data show it: active = GI50 up to about 1.1 µM and inactive = higher.

Regarding `CCN(CC)C(=S)N/N=C(\C)c1ccccc1O`, the GI50 in the assay on NCI-H522 was 8.57 µM (inactive); in the assay on A549, 11.4 µM (inactive); in the assay with SK-MEL-2, 19 µM (inactive); with U-251 it was 16.9 µM (inactive); in the assay on UACC-62, 10.9 µM (inactive); in the assay on TK-10 it was 62.1 µM (inactive). Besides, the GI50 in the assay with SNB-75 was 44.2 µM (inactive); with HOP-62, 34.6 µM (inactive); in the assay with UACC-257 it was 27 µM (inactive); in the assay with Malme-3M it was 26.4 µM (inactive); in the assay with SK-OV-3 it was 33.7 µM (inactive); in the assay with M14 it was 17.5 µM (inactive). For the same molecule, the GI50 with A498 is 20.5 µM (inactive).
On to `Cn1cnc2[nH]c(=O)[nH]c(=S)c21`, for which the GI50 in the assay with NCI-H522, in the assay on A549, in the assay with SK-MEL-2, with U-251, in the assay on UACC-62 and in the assay with TK-10 was > 100 µM (inactive) each time. For the same molecule, the GI50 with SNB-75, in the assay with HOP-62, with UACC-257, in the assay on Malme-3M, in the assay with SK-OV-3 and in the assay on M14 was > 100 µM (inactive) throughout. Besides, the GI50 in the assay with A498 is > 100 µM (inactive).
For `Nc1ccc(C(=O)N/C(=C\C=C\c2ccco2)c2nc3c4c(ccc3[nH]2)C(=O)c2ccccc2C4=O)cc1`, the GI50 is 15.8 µM (inactive) with NCI-H522; 21 µM (inactive) in the assay on A549; 26.5 µM (inactive) in the assay on SK-MEL-2; 31.3 µM (inactive) in the assay with U-251; 25 µM (inactive) in the assay on UACC-62; 23.1 µM (inactive) with TK-10. For the same molecule, the GI50 is 14.2 µM (inactive) in the assay on SNB-75; 56.2 µM (inactive) with HOP-62; > 100 µM (inactive) in the assay with UACC-257; 85.9 µM (inactive) in the assay with Malme-3M; 21.7 µM (inactive) with SK-OV-3; 55 µM (inactive) in the assay with M14. Besides, in the assay on A498, the GI50 is 22.4 µM (inactive).
For the molecule `CCCCCCCCCCCCOC(=N)N1CCOCC1`, the GI50 was 14.6 µM (inactive) with NCI-H522; 15.8 µM (inactive) with A549; 9.51 µM (inactive) in the assay on SK-MEL-2; 9.46 µM (inactive) in the assay on U-251; 9.77 µM (inactive) in the assay with UACC-62; 16.8 µM (inactive) in the assay on TK-10. For the same molecule, the GI50 with SNB-75 was 13.7 µM (inactive); with HOP-62 it was 17.3 µM (inactive); in the assay with UACC-257, 9.35 µM (inactive); with Malme-3M it was 19 µM (inactive); with SK-OV-3, 17 µM (inactive); in the assay on M14, 3.95 µM (inactive). Further, the GI50 in the assay on A498 is 6.59 µM (inactive).
For `O=C1C(c2ccccc2)=C(c2ccccc2)C(c2ccc(Cc3ccc(C4=C(c5ccccc5)C(=O)C(c5ccccc5)=C4c4ccccc4)cc3)cc2)=C1c1ccccc1`, the GI50 in the assay on NCI-H522 was > 100 µM (inactive); in the assay on A549, > 100 µM (inactive); with SK-MEL-2 it was > 100 µM (inactive); in the assay on U-251, > 100 µM (inactive); with UACC-62, > 100 µM (inactive); in the assay with TK-10, 48.6 µM (inactive). The GI50 with SNB-75 is > 100 µM (inactive); in the assay on HOP-62, > 100 µM (inactive); with UACC-257, 64.9 µM (inactive); in the assay with Malme-3M it was 74.1 µM (inactive); in the assay on SK-OV-3, > 100 µM (inactive); with A498, > 100 µM (inactive).
For the molecule `NC(CCCCN/C=C1/N=C(c2ccccc2)OC1=O)C(=O)O` (stereo not given), the GI50 with NCI-H522 is 26.1 µM (inactive); with A549, > 100 µM (inactive); in the assay with SK-MEL-2 it was > 100 µM (inactive); in the assay on U-251 it was > 100 µM (inactive); with UACC-62, > 100 µM (inactive); with TK-10, > 100 µM (inactive). Moreover, the GI50 with SNB-75, in the assay with HOP-62, with UACC-257, in the assay with Malme-3M, in the assay with SK-OV-3 and with M14 was > 100 µM (inactive) each time. Further, in the assay with A498, the GI50 was > 100 µM (inactive).
In the case of `CC(C)c1cccc(C(C)C)c1NC(=O)C(=O)Cc1nc2ccc([N+](=O)[O-])cc2nc1O`, the GI50 in the assay with NCI-H522 is 6.35 µM (inactive); with A549, 53.6 µM (inactive); in the assay with SK-MEL-2, 61 µM (inactive); with UACC-62, 24.5 µM (inactive); in the assay with TK-10, > 100 µM (inactive); in the assay with SNB-75, > 100 µM (inactive). For the same molecule, the GI50 is 69.2 µM (inactive) in the assay on UACC-257; > 100 µM (inactive) in the assay with Malme-3M; > 100 µM (inactive) in the assay with SK-OV-3; 28.1 µM (inactive) with M14; 58.5 µM (inactive) with A498.
In the case of `C/C(=N\NC(=N)N)C(CN(CC(C)C)CC(C)C)C(=O)Nc1ccc(C)cc1C` (stereo not given), the GI50 in the assay on NCI-H522, in the assay with A549, in the assay on SK-MEL-2, in the assay on U-251, in the assay on UACC-62 and with TK-10 was > 100 µM (inactive) throughout. The GI50 with SNB-75, in the assay with HOP-62, with UACC-257, with Malme-3M, with SK-OV-3 and in the assay on M14 was > 100 µM (inactive) each time. In addition, the GI50 in the assay on A498 is > 100 µM (inactive).
For `NNC(=O)C(=O)N/N=C(\CCC(=O)Nc1ccc(Cl)cc1)Cc1nc2ccccc2s1`, the GI50 in the assay with NCI-H522 was 15.5 µM (inactive); with A549 it was 45.4 µM (inactive); with SK-MEL-2, 28.9 µM (inactive); in the assay on U-251, 18.8 µM (inactive); in the assay with UACC-62, 22.1 µM (inactive); with TK-10, 56.1 µM (inactive). The GI50 in the assay with SNB-75 was 81.1 µM (inactive); with HOP-62, 53.2 µM (inactive); with UACC-257, 32.9 µM (inactive); with Malme-3M it was 44.7 µM (inactive); in the assay with SK-OV-3 it was 27.3 µM (inactive); in the assay with M14, 19.7 µM (inactive). For the same molecule, in the assay on A498, the GI50 is 52 µM (inactive).
With `c1ccc(C2=NN(c3ccccc3)C3(S2)SC(c2ccccc2)(c2ccccc2)c2ccccc23)cc1` (stereo not given), the GI50 in the assay on NCI-H522, in the assay on A549, in the assay on SK-MEL-2, in the assay with U-251, with UACC-62 and in the assay on TK-10 was > 100 µM (inactive) each time. The GI50 in the assay with SNB-75, in the assay with HOP-62, in the assay on UACC-257, in the assay on Malme-3M, in the assay with SK-OV-3 and in the assay on M14 was > 100 µM (inactive) in each case. The GI50 in the assay with A498 was > 100 µM (inactive).
Take `CC(=O)NNc1nc(C)c(C(=O)/C=C/c2ccccc2Cl)s1`: the GI50 with NCI-H522 was 43.5 µM (inactive); with A549, > 100 µM (inactive); in the assay on SK-MEL-2 it was > 100 µM (inactive); in the assay with U-251 it was > 100 µM (inactive); in the assay with UACC-62, > 100 µM (inactive); in the assay on TK-10 it was > 100 µM (inactive). Also, the GI50 in the assay with SNB-75, with HOP-62, in the assay with UACC-257, in the assay on Malme-3M, in the assay with SK-OV-3 and in the assay with A498 was > 100 µM (inactive) each time.
For the molecule `COc1c(C)c(C/C=C(\C)CCCCO)c(OC)c2ccccc12`, the GI50 in the assay with NCI-H522 is 19.1 µM (inactive); in the assay on MDA-MB-435 it was 32.6 µM (inactive); in the assay on A549, 36.1 µM (inactive); with SK-MEL-2, 83.6 µM (inactive); with U-251, 64.4 µM (inactive); in the assay on UACC-62 it was 49.2 µM (inactive). In addition, the GI50 in the assay on TK-10 was 63.8 µM (inactive); in the assay with SNB-75, 33 µM (inactive); in the assay on MDA-N, 42.2 µM (inactive); with BT-549, 46.7 µM (inactive); in the assay on UACC-257, 33.8 µM (inactive); with SK-OV-3, > 100 µM (inactive). In addition, the GI50 in the assay with M14 was 37.2 µM (inactive); in the assay on PC-3, 34.4 µM (inactive); in the assay on Hs-578T, 30.2 µM (inactive); in the assay with NCI/ADR-RES, 42.6 µM (inactive).
Turning to `O=c1c2ccccc2c(=O)n2n1-c1cccc(c1)CSSCc1cccc-2c1`, the GI50 in the assay on NCI-H522 is > 10 µM (inactive); in the assay on A549, > 10 µM (inactive); with SK-MEL-2 it was > 10 µM (inactive); in the assay with U-251, 92 µM (inactive); in the assay on UACC-62 it was > 10 µM (inactive); with TK-10, > 10 µM (inactive). Besides, the GI50 in the assay on SNB-75 is > 10 µM (inactive); with HOP-62 it was > 10 µM (inactive); with UACC-257, > 10 µM (inactive); in the assay with Malme-3M it was > 10 µM (inactive); in the assay with SK-OV-3, 52.8 µM (inactive); in the assay on M14, > 10 µM (inactive). In addition, the GI50 with A498 was > 10 µM (inactive).
For `COc1cc(C2c3cc4c(cc3[C@@H](Nc3ccc([N+](=O)[O-])cc3)C3COC(=O)[C@H]23)OCO4)cc(OC)c1O` (stereo not given in full), the GI50 with NCI-H522 is 1.63 µM (inactive); in the assay with MDA-MB-435 it was 6.11 µM (inactive); in the assay on SK-MEL-2, 4.26 µM (inactive); in the assay on U-251 it was 0.631 µM (active); with UACC-62 it was 0.971 µM (active); in the assay with TK-10, 2.41 µM (inactive). For the same molecule, the GI50 in the assay on SNB-75 was 1.19 µM (inactive); in the assay with MDA-N, 4.09 µM (inactive); in the assay on BT-549 it was 2.3 µM (inactive); in the assay on HOP-62 it was 0.321 µM (active); in the assay on UACC-257, 4.65 µM (inactive); in the assay on Malme-3M, 2.01 µM (inactive). The GI50 in the assay with SK-OV-3 is 1.54 µM (inactive); in the assay on M14, 1.33 µM (inactive); in the assay on PC-3, 2.16 µM (inactive); with NCI/ADR-RES, 3.39 µM (inactive); in the assay on A498, 0.676 µM (active).

As usually defined, the GI50 is the concentration giving 50% growth inhibition.
